Experimental data: ChEMBL document CHEMBL1152790, “Synthesis and pharmacological characterization of beta2-adrenergic agonist enantiomers: zilpaterol” (J Med Chem, 2009)
Where a name gives a salt, the structure may show the parent alone. The source made the active and inactive calls. The calls are words filed in the database; no cut-off is given here.

Tests used:
[1] = target: T1, Mu-type opioid receptor (Homo sapiens, UniProt P35372); assay: Agonist activity at human recombinant mu opioid receptor expressed in AequoScreen cells assessed as aequorin-derived receptor-mediated changes in intracellular calcium levels; type: functional, cell-based
[2] = target: T1, Mu-type opioid receptor; assay: Antagonist activity at human recombinant mu opioid receptor expressed in AequoScreen cells assessed as aequorin-derived receptor-mediated changes in intracellular calcium levels; type: functional, cell-based
[3] = target: Beta-2 adrenergic receptor (Cavia porcellus, UniProt Q8K4Z4)
Description: Agonist activity at adrenergic beta2 receptor in guinea pig trachea assessed as relaxation of carbachol-induced tissue contraction

[4] = target: T1, Mu-type opioid receptor; assay: Displacement of [3H]DAMGO from human recombinant mu opioid receptor expressed in HEK293 cells by scintillation counting; type: cell-based

T1 sequence (P35372 whole entry): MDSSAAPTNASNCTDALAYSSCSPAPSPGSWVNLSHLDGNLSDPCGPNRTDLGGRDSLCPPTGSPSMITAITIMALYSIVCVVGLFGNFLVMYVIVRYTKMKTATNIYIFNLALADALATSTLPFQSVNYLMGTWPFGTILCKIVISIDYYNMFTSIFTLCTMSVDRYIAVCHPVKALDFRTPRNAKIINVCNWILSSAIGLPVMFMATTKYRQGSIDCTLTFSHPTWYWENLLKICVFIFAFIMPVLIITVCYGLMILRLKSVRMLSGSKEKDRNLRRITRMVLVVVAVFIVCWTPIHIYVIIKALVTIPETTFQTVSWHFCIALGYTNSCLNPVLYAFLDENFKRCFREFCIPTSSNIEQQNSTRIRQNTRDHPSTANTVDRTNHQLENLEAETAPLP
Sequence of Beta-2 adrenergic receptor (Q8K4Z4 whole entry): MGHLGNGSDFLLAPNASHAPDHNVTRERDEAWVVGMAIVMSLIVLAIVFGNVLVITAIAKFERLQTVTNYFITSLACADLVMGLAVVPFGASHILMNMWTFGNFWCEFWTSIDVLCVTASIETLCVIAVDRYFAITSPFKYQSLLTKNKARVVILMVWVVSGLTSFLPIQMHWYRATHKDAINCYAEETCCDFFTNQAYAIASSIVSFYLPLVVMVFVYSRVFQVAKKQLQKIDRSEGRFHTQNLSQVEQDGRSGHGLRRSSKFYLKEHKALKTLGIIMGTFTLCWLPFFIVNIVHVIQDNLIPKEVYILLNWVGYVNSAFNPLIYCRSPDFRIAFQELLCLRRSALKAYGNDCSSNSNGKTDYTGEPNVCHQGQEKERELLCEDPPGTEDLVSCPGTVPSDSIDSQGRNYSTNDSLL

| Compound | Activity [1] | Emax [2] | IC50 [2] | further results |
| --- | --- | --- | --- | --- |
| CC(C)N[C@H]1CCn2c(=O)[nH]c3cccc(c32)[C@@H]1O | inactive | 96% | 140 µM | – |
| CC(C)N[C@@H]1CCn2c(=O)[nH]c3cccc(c32)[C@H]1O [ZILPATEROL HYDROCHLORIDE] | – | – | > 1000 µM | – |
| CC(C)N[C@@H]1CCn2c(=O)[nH]c3cccc(c32)[C@H]1O (racemic) | inactive | 93% | – | – |
| CC(C)(C)NCC(O)c1cc(Cl)c(N)c(Cl)c1 (racemic) [CLENBUTEROL] | – | – | – | EC50 [3]: 0.013 µM |
| CC(C)N[C@@H]1CCn2c(=O)[nH]c3cccc(c32)[C@H]1O | inactive | – | – | – |
| CC(C)N[C@@H]1CCn2c(=O)[nH]c3cccc(c32)[C@H]1O (racemic) [ZILPATEROL HYDROCHLORIDE] | – | – | 300 µM | IC50 [4]: 31 µM; Ki [4]: 13 µM |
